The record followed here is article PMC11513924, “Addressing the Intracellular Vestibule of the Plasmodial Lactate Transporter PfFNT by p-Substituted Inhibitors Amplifies In Vitro Activity” (Journal of Medicinal Chemistry, 2024).

Like-named read-outs stand apart in the source and are kept apart here.

One data set concerns P. falciparum 3D7. In words: P. falciparum 3D7 SCID mouse model, in vivo efficacy. Set-up: species or system Plasmodium falciparum (SCID mice). As to conditions: oral 150 mg kg^–1 day^–1, four consecutive days, one animal. How it is done: (§1) The animal experiments against P. berghei were carried out at the Swiss Tropical and Public Health Institute adhering to local and national regulations of laboratory animal welfare in Switzerland (awarded permission no. BL530). Protocols are regularly reviewed and revised following approval by the local authority (Amt für Lebensmittelsicherheit and Veterinärwesen Basel-Land). Female mice infected with GFP-expressing P. berghei (ANKA strain, donated by A. P. Waters and C. J. Janse, Leiden University, The Netherlands) were analyzed for in vivo efficacy of 7e and 8a as described previously.[18],[19] Parasitemia was determined using flow cytometry with a detection limit of 1 parasite in 1000 erythrocytes. Compound activity was calculated as the difference between the mean parasitemia for the control and treated groups (n = 3, each) expressed relative to the control group. 7e and 8a were suspended in 70/30 Tween 80/ethanol, diluted 10-fold with water and administered orally 4, 24, 48, and 72 h after infection. 7e was analyzed at 30, 10, and 3 mg kg^–1, 8a at 50, and 10 mg kg^–1. In vivo efficacy against P. falciparum was conducted at The Art of Discovery, TAD, Bizkaia, Spain, according to the previously described standard assay.[16],[17]

Data set [1] in a line: Lipophilicity log D7.4 by HPLC (OECD guideline). Format: physicochemical. The conditions noted are these: RP-8 HPLC column (ZORBAX Eclipse XDB-C8), pH 7.4. How it is done: Lipophilicity was determined according to the OECD Guidelines for the Testing of Chemicals no. […]. Briefly, the test compounds plus 9 standards (4-acetylpyridine, acetanilide, acetophenone, methyl benzoate, ethyl benzoate, benzophenone, phenyl benzoate, diphenyl ether, triphenylamine) were separated by HPLC with UV detection at 220 nm (Waters HPLC 1525 with tunable absorbance detector 486) using an RP-8 column (Agilent Technologies ZORBAX Eclipse XDB-C8 4.6 × 150 mm, 5 μm) at 20 °C. Eluents A (20 mM ammonium formate, pH 7.4) and B (methanol) were used to generate a gradient profile of 80% A–100% B (0–35 min), 100% B (35–37 min), 100% B–80% A (37–42 min), and 80% A (42–55 min) at a flow rate of 0.8 mL min^–1. The dead time was determined via the injection peak caused by the solvent. The log D7.4 values were calculated by correlating the capacity factors with the known values of the standards via polynomial fitting.

Another data set relates to albumin. In words: Plasma protein (albumin) binding by ultracentrifugation. Type of data set: in vitro ADME. As to conditions: pooled human plasma; for albumin binding: 5 μM. As to the method:
Clearance, half-life and plasma protein binding were assayed at TGC LifeScience, Kolkata, India, as described before.[36] Test compounds were incubated in duplicate in 96-well plates at 1 μM concentration with pooled human liver microsomes in 0.1 M phosphate buffer, pH 7.4 (0.4 mg mL^–1 final protein concentration; XenoTech, Lenexa, KS) in the presence and absence of 1 mM NADPH. Metabolism reactions were stopped by addition of 300 μL of ice-cold acetonitrile containing carbamazepine at 0.0236 μg mL^–1 as an internal standard, collection and analysis of the supernatant by LC–MS/MS (Agilent Rapid Resolution HPLC, AB SCIEX 4500 MS). The relative loss of the test compound over time was used to determine the first order rate constant for calculation of the in vitro intrinsic clearance and half-life.[37] Plasma protein binding was determined by ultracentrifugation from pooled human plasma spiked with 5 μM test compound. Aliquots were transferred immediately (total plasma concentration) or after 1 h at 37 °C (protein bound fraction) to ice-cold acetonitrile containing 0.0236 μg mL^–1 carbamazepine as an internal standard, ultracentrifuged for 4 h at 37 °C (Beckman Optima L-80XP), and analyzed by LC–MS/MS (Agilent Rapid Resolution HPLC, AB SCIEX 4500 QTRAP MS).

Data set [2] relates to Plasmodium falciparum 3D7 parasites. Kind of data set: P. falciparum 3D7 culture growth assay in erythrocytes (in vitro activity). Format: cell-based. The conditions noted are these: Plasmodium falciparum, 3D7, Erythrocyte; for activity at 0.05 µM / activity at 0.1 µM / activity at 0.2 µM / EC50: 48 h; for activity at 0.05 µM: read-out: % Growth at 50 nM (in vitro, 3D7); for activity at 0.1 µM: read-out: % Growth at 100 nM (in vitro, 3D7); for activity at 0.2 µM: read-out: % Growth at 200 nM (in vitro, 3D7); for EC50: read-out: EC50 (in vitro, 3D7). Summed up: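 Parasitemia of P. falciparum 3D7 in erythrocyte culture was measured by flow cytometry and growth expressed as % of untreated control.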

The subject of another data set is P. berghei. In words: P. berghei mouse model, 4 day Peters' test. Type of data set: in vivo, Plasmodium berghei (mice). As to the method: as §1
Data set [3] can be described thus: Blood levels of compound in the SCID mouse model. Format: in vivo.
The test system of another data set is HEK293 cells. Format: cell-based. As to conditions: human. How it is done: (§2) HEK293T and HepG2 cells were precultured in Dulbecco’s modified Eagle medium with 10% fetal bovine serum (FBS, Gibco, #10270106) in 96-well plates (Sarstedt, TC-treated, #83.3924) at a density of 20,000 cells per well. For ATP quantification, commercial CellTiterGlo was used according to the manufacturer’s instructions. For the resazurin assay, the culture medium was removed, and the cells were incubated in 120 μL of a 66 μM resazurin solution in PBS (SigmaAldrich, #R7017) at 37 °C for 2 h, for fluorescence read-out (λex/λem = 544/590 nm) using a microplate reader (Spark, Tecan Group). Nuclei were counted by microscopy (ImageXpress MicroXL, Molecular Devices) after fixation with 4% paraformaldehyde in PBS, and 15 min incubation at room temperature with Hoechst33342. Quantification was done using the “Cell Proliferation High-Throughput” algorithm (MetaXpress Software, Molecular Devices). All values were normalized to vehicle control (DMSO).

The subject of a further data set is HepG2 cells. Format: cell-based. As to conditions: human. How it is done:
as §2

The mark [4] stands for this setting: oral 10 mg kg^–1 day^–1, four consecutive days.

In the case of `CCCNc1ccc(C(=O)/C=C(\O)C(F)(F)C(F)(F)F)cn1` [7e, 4,4,5,5,5-Pentafluoro-3-hydroxy-1-(6-(propylamino)pyridin-3-yl)pent-2-en-1-one], in the data set with P. falciparum 3D7, the “effect on parasite load” value is “decreased the parasite load below the starting parasitemia”. The compound also had a chromatographic logD in data set [1] of 3.18. In the data set with albumin, the “unbound fraction in plasma” value stood at 1.54%. The albumin binding in the data set on albumin was determined as 98.46%. The activity at 0.05 µM in data set [2] (50 nM compound, % of untreated control) stood at 7%. Moreover, in data set [2] (100 nM compound, % of untreated control), the activity at 0.1 µM worked out at 4%. For the same compound, the activity at 0.2 µM in data set [2] (200 nM compound, % of untreated control) worked out at 2%. For the same compound, the inhibition at 0.05 µM in data set [2] (50 nM compound, 100 minus % growth, read-out: inhibitory activity at 50 nM (in vitro, 3D7)) came out at 93%. Besides, the EC50 in data set [2] (cultures in erythrocytes) is 14.8 nM. In addition, the “activity (reduction of parasitemia relative to untreated)” value with P. berghei (oral 3 mg kg^–1 day^–1, four consecutive days) is 3.5%; with P. berghei (setting [4]) it was 15.4%; with P. berghei (oral 30 mg kg^–1 day^–1, four consecutive days), 34.2%. Moreover, the “blood concentration (peak)” value in data set [3] (oral 4 × 50 mg kg^–1) was roughly 2 μg mL^–1. For the same compound, the half-life in data set [3] (whole blood, oral 4 × 50 mg kg^–1, read-out: half-life from modeled blood profile) fell in the range of 2 to 4 h. The “concentration above which nuclei count (proliferation) starts to decline slightly” value (shortened to “concentration above which nuclei count”) in the data set on HEK293 cells and in the data set on HepG2 cells was “above 10 μM” each time.

Turning to `CC(=O)Nc1ccc(C(=O)/C=C(\O)C(F)(F)C(F)(F)F)cn1` [8a, N-[5-(4,4,5,5,5-Pentafluoro-3-hydroxypent-2-enoyl)pyridin-2-yl]acetamide], the chromatographic logD in data set [1] was 1.7. Besides, in the data set on albumin, the “unbound fraction in plasma” value was 6.31% and the albumin binding was determined as 93.69%. Further, in data set [2], the activity at 0.05 µM came to 50%, the activity at 0.1 µM came out at 23%, the activity at 0.2 µM worked out at 8% and the EC50 came to 49.8 nM. The “activity (reduction of parasitemia relative to untreated)” value with P. berghei (setting [4]) is reported as 76.0%. In addition, the “activity (parasites cleared)” value in the data set on P. berghei (oral 50 mg kg^–1 day^–1, four consecutive days) came out at 99.7%. In the data set with HEK293 cells, the “concentration above which nuclei count” value was “above 10 μM”. For the same compound, the “concentration above which nuclei count” value in the data set on HepG2 cells is “above 10 μM”.
